The assay deals with T1, Des1 (Homo sapiens, UniProt O15121).
T1 sequence (O15121 1-323): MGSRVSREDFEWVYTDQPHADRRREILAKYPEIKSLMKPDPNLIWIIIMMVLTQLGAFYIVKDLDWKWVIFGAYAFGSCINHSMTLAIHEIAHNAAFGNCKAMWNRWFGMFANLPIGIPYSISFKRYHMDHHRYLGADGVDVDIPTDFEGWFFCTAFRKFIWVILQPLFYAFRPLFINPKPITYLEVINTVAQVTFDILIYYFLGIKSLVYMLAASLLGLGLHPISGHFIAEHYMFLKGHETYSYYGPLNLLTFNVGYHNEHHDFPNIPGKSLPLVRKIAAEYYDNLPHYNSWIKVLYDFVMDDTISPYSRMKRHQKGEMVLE
Nature of the assay: Jurkat T cell measurement of conversion of dihydroceramide to ceramide (Des1 activity, LC-MS/MS of NBD-C6-ceramide). The format is cell-based. Set-up: endogenous in cells; host or cells: Jurkat clone E6-1. To be noted: Jurkat clone E6-1 cells, 10 μM NBD-C6-dihydroceramide, 3 hours at 37° C.; for inhibition at 0.5 µM: 0.5 uM compound, read-out: Des1 % Inhib (0.5 uM); for IC50: read-out: Des1 IC50. How it is done: Jurkat T Cell Measurement of Conversion of Dihydroceramide to Ceramide
Jurkat clone E6-1 cells were grown and then seeded at 10^6 cells/mL in a 96-well plate (400 μL in each well. The cells were administered 100 μL of cell culture media containing 50-μM NBD-C6-dihydroceramide (Des1 substrate), affording a final concentration of substrate of 10 μM. The cells were incubated with substrate at 4° C. for 30 minutes. Following the incubation at 4° C., the cell suspension was centrifuged at 1200 rpm for 3 minutes, and the cell pellet is resuspended in 400 μL of fresh media containing various concentrations of either fenretinide (known Des1 inhibitor control compound) or test article. The final concentrations of control compound and test compounds were tested in a range from 0-10 μM. The cells and compounds were incubated at 37° C. for 3 hours. Following the 3-hour incubation, the plate was centrifuged at 2500 g for 3 minutes at 4° C., followed by collection and transfer of 200 μL of the supernatant to a new 96-well plate with 300 μL of methanol an containing appropriate internal standards for liquid chromatography/tandem mass spectroscopy (LC/MS/MS) analysis (internal standard: 500 nM labetalol and 100 nM alprazolam). The samples were vortexed for 2 minutes followed by centrifugation at 3,220 g for 20 minutes. Following centrifugation, 200 μL of the supernatant was transferred to a new 96-well plate for LC-MS/MS analysis to determine the amount of NBD-C6-ceramide (Des1 product) produced. The assay was typically performed in duplicate. A reduction of at least 30% compared to vehicle control (0 μM test article) is indicative of an active compound, and a reduction of 75% compared to vehicle control is preferred.

Each structure is given as a SMILES string.

For orientation: IC50 means the concentration that gives 50% inhibition. Regarding `O=C(Nc1ccc(O)cn1)O[C@H]1CC[C@H](c2ccccc2)CC1` [Example 43, (1r,4r)-4-Phenylcyclohexyl N-(5-hydroxypyridin-2-yl)carbamate], the inhibition at 0.5 µM is 97% and the IC50 turned out to be 6 nM.
Regarding `O=C(Nc1ccc(O)cn1)N1CCCN(c2ccc(F)c(F)c2)CC1` [Example 87, 4-(3,4-difluorophenyl)-N-(5-hydroxypyridin-2-yl)-1,4-diazepane-1-carboxamide], the inhibition at 0.5 µM turned out to be 92.7% and the half-maximal inhibitory concentration (IC50) worked out at 21 nM.
Consider `O=C(Nc1ccc(O)cn1)OC1CCN(c2ccc(F)cc2F)CC1` [Example 54, 1-(2,4-difluorophenyl)piperidin-4-yl N-(5-hydroxypyridin-2-yl)carbamate], for which the half-inhibitory concentration (IC50) is 5 nM.
In the case of `O=C(Nc1ccc(O)cn1)N1CCN(c2cccc(F)n2)CC1` [Example 35, 4-(6-fluoropyridin-2-yl)-N-(5-hydroxypyridin-2-yl)piperazine-1-carboxamide], the inhibition at 0.5 µM worked out at 91.3% and the IC50 was determined as 3 nM.
As for `O=C(Nc1ccc(O)cn1)N1CCN(c2ccc(Cl)cc2Cl)CC1` [Example 23, 4-(2,4-dichlorophenyl)-N-(5-hydroxypyridin-2-yl)piperazine-1-carboxamide], the IC50 was found to be 10 nM.
For the molecule `O=C(Nc1ccc(O)cn1)N1CCN(c2ccc(OC(F)(F)F)cn2)CC1` [Example 46, N-(5-hydroxypyridin-2-yl)-4-[5-(trifluoromethoxy)pyridin-2-yl]piperazine-1-carboxamide], the inhibition at 0.5 µM stood at 94.5% and the IC50 amounted to 7 nM.
In the case of `O=C(Nc1ccc(O)cn1)NC1CCN(c2ccccc2)CC1` [Example 32, 3-(5-hydroxypyridin-2-yl)-1-(1-phenylpiperidin-4-yl)urea], the half-maximal inhibitory concentration (IC50) was determined as 180 nM.
The same measure, in the same setting: under `O=C(Nc1ccc(O)cn1)N1CCCN(c2ccc(Cl)cn2)CC1` [Example 85, 4-(5-chloropyridin-2-yl)-N-(5-hydroxypyridin-2-yl)-1,4-diazepane-1-carboxamide] stands 55 nM.
In the case of `Cn1ncc2c(N3CCN(C(=O)Nc4ccc(O)cn4)CC3)cccc21` [Example 81, N-(5-hydroxypyridin-2-yl)-4-(1-methyl-1H-indazol-4-yl)piperazine-1-carboxamide], the inhibition at 0.5 µM was 77.9%.
On the same count and under the same terms, under `O=C(Nc1ccc(O)cc1)N1CCN(c2ccc(F)cc2)CC1` [Example 29, 4-(4-fluorophenyl)-N-(4-hydroxyphenyl)piperazine-1-carboxamide] stands 58.6%; under `Cn1ncc2ccc(N3CCN(C(=O)Nc4ccc(O)cn4)CC3)cc21` [Example 82, N-(5-hydroxypyridin-2-yl)-4-(1-methyl-1H-indazol-6-yl)piperazine-1-carboxamide], 78.4%.
For `O=C(Nc1ccc(O)cn1)OC1CCN(c2ccc(C(F)(F)F)cc2)CC1` [Example 57, 1-[4-(trifluoromethyl)phenyl] piperidin-4-yl N-(5-hydroxypyridin-2-yl) carbamate], the inhibition at 0.5 µM worked out at 95.5% and the IC50 stood at 1 nM.
For the molecule `O=C(Oc1ccc(O)cn1)N1CCN(c2ccc(C(F)(F)F)cn2)CC1` [Example 88, 5-hydroxypyridin-2-yl 4-[5-(trifluoromethyl)pyridin-2-yl]piperazine-1-carboxylate], the inhibition at 0.5 µM came to 92.7% and the half-maximal inhibitory concentration (IC50) was 25 nM.
Take `O=C(Nc1ccc(O)cn1)OC1CCN(c2ccccc2)CC1` [Example 44, 1-Phenylpiperidin-4-yl N-(5-hydroxypyridin-2-yl)carbamate]: the inhibition at 0.5 µM was found to be 95% and the IC50 is 8 nM.
For `O=C(Nc1ccc(O)cc1)N1CCN(c2ccc(C(F)(F)F)cc2)CC1` [Example 30, N-(4-hydroxyphenyl)-4-[4-(trifluoromethyl)phenyl]piperazine-1-carboxamide] the same measures were 89.7% and 150 nM.
For `O=C(Nc1ccc(O)cn1)N1CCC(Cc2ccccc2)CC1` [Example 8, 4-Benzyl-N-(5-hydroxypyridin-2-yl)piperidine-1-carboxamide] the same measures were 94.9% and 13 nM.
`O=C(Nc1ccc(O)cn1)NC1CCOCC1` [Example 20, 3-(5-Hydroxypyridin-2-yl)-1-(oxan-4-yl)urea]: the inhibition at 0.5 µM came out at 19.6%.
In the case of `O=C(Nc1ccc(O)cn1)N1CCN(c2ccc(C(F)(F)F)cn2)CC1` [Example 18, N-(5-hydroxypyridin-2-yl)-4-[5-(trifluoromethyl)pyridin-2-yl]piperazine-1-carboxamide], the inhibition at 0.5 µM came out at 96.6% and the half-inhibitory concentration (IC50) stood at 4 nM.
For the molecule `O=C(NCc1ccc(Cl)cc1)Nc1ccc(O)cn1` [Example 76, 1-[(4-chlorophenyl)methyl]-3-(5-hydroxypyridin-2-yl)urea], the inhibition at 0.5 µM came to 75.1%.
In the case of `O=C(Nc1ccc(O)cn1)OC1CCN(c2ccccn2)CC1` [Example 59, 1-(pyridin-2-yl)piperidin-4-yl N-(5-hydroxypyridin-2-yl)carbamate], the inhibition at 0.5 µM was determined as 93.2% and the half-maximal inhibitory concentration (IC50) was 43 nM.
`O=S(=O)(Nc1ccc(O)cn1)N1CCN(c2ccc(Cl)cc2)CC1` [Example 74, 4-(4-chlorophenyl)-N-(5-hydroxypyridin-2-yl)piperazine-1-sulfonamide]: the inhibition at 0.5 µM came to 72.8%.
Same read-out and setting: with `Cn1cc(C2CCC(C(=O)Nc3ccc(O)cn3)CC2)cn1` (stereo not drawn) [Example 90, N-(5-hydroxypyridin-2-yl)-4-(1-methyl-1H-pyrazol-4-yl)cyclohexane-1-carboxamide] the figure was 39.2%.
Regarding `O=C(Nc1ccc(O)cn1)N1CCN(c2ccc(F)c(F)c2)CC1` [Example 25, 4-(3,4-difluorophenyl)-N-(5-hydroxypyridin-2-yl)piperazine-1-carboxamide], the IC50 was 9 nM.
For the molecule `O=C(Nc1ccc(O)cn1)N1CCN(Cc2ccc(F)c(F)c2)CC1` [Example 77, 4-[(3,4-difluorophenyl)methyl]-N-(5-hydroxypyridin-2-yl)piperazine-1-carboxamide], the inhibition at 0.5 µM came out at 91.9% and the IC50 was 35 nM.
`O=S(=O)(Nc1ccc(O)cn1)C1CCN(c2ccc(C(F)(F)F)cc2)CC1` [Example 69, N-(5-hydroxypyridin-2-yl)-1-[4-(trifluoromethyl)phenyl]piperidine-4-sulfonamide]: the inhibition at 0.5 µM worked out at 95% and the concentration for half-maximal inhibition (IC50) worked out at 40 nM.
On to `O=C(Nc1ccc(O)cn1)NC1CCCCC1` [Example 21, 1-cyclohexyl-3-(5-hydroxypyridin-2-yl)urea], for which the inhibition at 0.5 µM is 69.3%.
On the same count and under the same terms, under `O=S(=O)(Nc1ccc(O)cn1)C1CCN(c2ccc(F)cc2)CC1` [Example 66, 1-(4-fluorophenyl)-N-(5-hydroxypyridin-2-yl)piperidine-4-sulfonamide] stands 72.1%.
As for `COc1ccc(N2CCN(C(=O)Nc3ccc(O)cn3)CC2)cc1` [Example 15, N-(5-hydroxypyridin-2-yl)-4-(4-methoxyphenyl)piperazine-1-carboxamide], the inhibition at 0.5 µM amounted to 81.8% and the IC50 turned out to be 110 nM.
In the same order, the values of `O=C(Nc1ccc(O)cn1)N1CCN(c2cc(F)ccn2)CC1` [Example 78, 4-(4-fluoropyridin-2-yl)-N-(5-hydroxypyridin-2-yl)piperazine-1-carboxamide] are 93.4% and 19 to 64 nM.
In the same order, the values of `O=C(Nc1ccc(O)cn1)N1CCN(c2ncc(F)cc2F)CC1` [Example 79, 4-(3,5-difluoropyridin-2-yl)-N-(5-hydroxypyridin-2-yl) piperazine-1-carboxamide] are 93.8% and 7.6 to 70 nM.
For `O=S(=O)(Nc1ccc(O)cn1)C1CCN(c2ccc(Cl)cc2)CC1` [Example 68, 1-(4-chlorophenyl)-N-(5-hydroxypyridin-2-yl)piperidine-4-sulfonamide] the same measures were 92.4% and 85 nM.
Turning to `N#Cc1ccc(N2CCN(C(=O)Nc3ccc(O)cn3)CC2)cc1` [Example 27, 4-(4-cyanophenyl)-N-(5-hydroxypyridin-2-yl)piperazine-1-carboxamide], the concentration for half-maximal inhibition (IC50) turned out to be 11 nM.
Turning to `O=C(Nc1ccc(O)cn1)NC1CCN(c2ccc(F)cc2)CC1` [Example 51, 1-[1-(4-fluorophenyl)piperidin-4-yl]-3-(5-hydroxypyridin-2-yl)urea], the inhibition at 0.5 µM amounted to 91.5% and the concentration for half-maximal inhibition (IC50) turned out to be 92 nM.

(Values after patent publication US12247019B2 (Centaurus Therapeutics, priority 2018, dated 2025).)
